Measurements published in US20230330093A1, “APPLICATION OF NITROGEN-CONTAINING SATURATED HETEROCYCLIC COMPOUND” (SHANGHAI PHARMACEUTICALS HOLDING CO., LTD., priority 2020, published 2023).
Where “and” joins values, the source holds several entries; their conditions need not be identical. Equal values may be shown once.

Columns and labels:
[1] = tested on: rhesus monkeys with spontaneous chronic kidney disease; test: Effect on serum K+, 8-week administration; details: Valsartan group (n = 3)
Procedure: In the trial, animals were brought in three stages. In the first stage, there were two groups: 3 animals (No. 257, No. 4721, No. 287) in a group with 5 mg/kg of the malate of compound of formula I, and 2 animals (No. 1029, No. 4713) in the placebo group. […] In the third stage, there were two groups: 5 animals (No. 4829, No. 6501, No. 287, No. 4721, No. 2091) in a group with 2 mg/kg of the malate of compound of formula I, and 5 animals (No. 1567, No. 4861, No. 5453, No. 6653, No. 5073) in a group with 1 mg/kg of the malate of compound of formula I.
Serum potassium, twice before administration, once every 2 weeks during the administration period;
Blood biochemical and urine index detection equipment: Roche cobas6000 analyzer series C501 module detection. ELISA kit was used for NT-proBNP test.

[2] = tested on: cynomolgus monkeys; test: 4-week safety study: urinalysis; assay type: in vivo; details: male and female monkeys
Procedure: For the monkey study, at quarantine period (twice, d01 and d02), day 14, day 28 and day 56, the following parameters were measured as shown in Table 20. (1) Hematological and coagulation index examination were performed using a Bayer ADVIA2120 (Germany) and a Sysmex CA-1500 (Japan). (2) The serum biochemical examination was assessed using a HITACHI 7080 automated analyzer (Japan) and an Easylyte PLUS electrolyte analyzer (MEDICA, America). (3) The 24-h pooled urine of each animal was collected by a tray under each cage. Urinalysis was carried out using Uritest-300 (China). (4) The 24-h pooled faeces of each monkey were collected by a tray under each cage. Fecal occult blood was detected. (5) ACCESS 2 Chemiluminescence immunoassay was used for myocardial troponin (TropI, non-GLP) test.

K^+ ([1]; 2 weeks, Mean ± SD)	K^+ ([1]; 4 weeks, Mean ± SD)	K^+ ([1]; 6 weeks, Mean ± SD)	K^+ ([1]; 8 weeks, Mean ± SD)	K^+ ([1]; Baseline 1, Mean ± SD)	K^+ ([1]; Baseline 2, Mean ± SD)	Compound	K^+ ([1]; 2 weeks, individual animals)	K^+ ([1]; 4 weeks, individual animals)	K^+ ([1]; 6 weeks, individual animals)	K^+ ([1]; 8 weeks, individual animals)	K^+ ([1]; Baseline 1, individual animals)	K^+ ([1]; Baseline 2, individual animals)	urinalysis parameters [2]
5.09 ± 0.54 mmol/L	5.04 ± 0.58 mmol/L	5.06 ± 0.24 mmol/L	5.13 ± 0.74 mmol/L	4.37 ± 0.54 mmol/L	4.66 ± 0.40 mmol/L	CCCCC(=O)N(Cc1ccc(-c2ccccc2-c2nnn[nH]2)cc1)[C@H](C(=O)O)C(C)C [Valsartan, reference compound]	5.38 mmol/L and 4.47 mmol/L and 5.43 mmol/L	5.68 mmol/L and 4.55 mmol/L and 4.88 mmol/L	5.28 mmol/L and 4.81 mmol/L and 5.09 mmol/L	5.94 mmol/L and 4.50 mmol/L and 4.95 mmol/L	4.94 mmol/L and 3.86 mmol/L and 4.31 mmol/L	4.63 mmol/L and 4.27 mmol/L and 5.07 mmol/L	–
–	–	–	–	–	–	COC(=O)NCCCn1nc([C@@H](C)N(C(=O)[C@H]2CNCCO2)C2CC2)c2ccc(C)nc21 [compound of Formula I]	–	–	–	–	–	–	No significant changes
